Measurements as given in patent publication US10434147B2, “Treatment type 2 diabetes mellitus patients” (Sanofi-Aventis Deutschland GmbH, priority 2015, dated 2019).

How the values were obtained:
[1] = test system: Patients with Type 2 Diabetes Insufficiently Controlled with Insulin Glargine with or without Metformin; test: Insulin dose (insulin glargine, insulin glulisine), 26-week study; format: in vivo, human; conditions: for Insulin glargine dose change to Week 26, LS Mean difference (SE) of Lixisenatide vs. the labelled insulin glulisine arm / Insulin glargine dose, Change from baseline to Week 26 (LOCF), LS Mean (SE): ANCOVA; for Insulin glargine dose change to Week 26, LS Mean difference (SE) of Lixisenatide vs. the labelled insulin glulisine arm / Insulin glargine dose, Change from baseline to Week 26 (LOCF), LS Mean (SE) / Insulin glargine dose, Baseline, Mean (SD) / Insulin glargine dose, Baseline, Median / Insulin glargine dose, Week 26 (LOCF), Mean (SD) / Insulin glargine dose, Week 26 (LOCF), Median / Insulin glargine dose, Change from baseline to Week 26 (LOCF), Mean (SD) / Insulin glargine dose, Change from baseline to Week 26 (LOCF), Median: mITT population; for Insulin glargine dose, Baseline, Mean (SD) / Insulin glargine dose, Baseline, Median: Baseline (before IMP); for Insulin Glargine dose, LS mean + SE change from BL / Insulin Glargine dose, LS mean treatment difference (lixisenatide vs the labelled arm): Week 26
Source text: (§1) FIG. 6—Graphical study design. ^1 Insulin glargine should be injected subcutaneously once daily at dinner or breakfast time (according to patient's/investigators' preference). […] Meal used for insulin glulisine dosing should remain the same throughout the 26-week treatment period. ^4 Injection of insulin glulisine prior to breakfast, lunch and dinner.
(§2) Co-primary endpoints at 26 weeks were (1) non-inferiority (95% CI upper bound <0.4%) in HbA1c reduction with LIXI vs GLU-1 and (2) for LIXI vs GLU-3, either non-inferiority in HbA1c reduction (2a) OR superiority (one-sided α≤0.025) in body weight change (2b). FPG, PPG, IG dose, composite outcomes, AEs, and hypoglycemia were assessed.

[2] = test system: Patients with Type 2 Diabetes Insufficiently Controlled with Insulin Glargine with or without Metformin; test: Fasting plasma glucose, 26-week study; format: in vivo, human; conditions: for Fasting plasma glucose change to Week 26, LS Mean difference (SE) of Lixisenatide vs. the labelled insulin glulisine arm / Fasting plasma glucose, Change from baseline to Week 26 (LOCF), LS Mean (SE): ANCOVA; for Fasting plasma glucose change to Week 26, LS Mean difference (SE) of Lixisenatide vs. the labelled insulin glulisine arm / Fasting plasma glucose, Change from baseline to Week 26 (LOCF), LS Mean (SE) / Fasting plasma glucose, Baseline, Mean (SD) / Fasting plasma glucose, Baseline, Median / Fasting plasma glucose, Week 26 (LOCF), Mean (SD) / Fasting plasma glucose, Week 26 (LOCF), Median / Fasting plasma glucose, Change from baseline to Week 26 (LOCF), Mean (SD) / Fasting plasma glucose, Change from baseline to Week 26 (LOCF), Median: mITT population; for FPG, BL (end run-in) mean ± SD / FPG, Screening (start run-in) mean ± SD / FPG, Week 26 (LOCF) mean ± SD / FPG, LS mean treatment difference (lixisenatide vs the labelled arm) / FPG, LS mean ± SE change from BL: mITT; for Fasting plasma glucose, Baseline, Mean (SD) / Fasting plasma glucose, Baseline, Median: Baseline (before IMP); for FPG, LS mean treatment difference (lixisenatide vs the labelled arm) / FPG, LS mean ± SE change from BL: Week 26
Source text: as §1, §2

[3] = test system: Patients with Type 2 Diabetes Insufficiently Controlled with Insulin Glargine with or without Metformin; set-up: species or system human; conditions: in vivo
Source text: Clinical symptoms that are considered to result from a hypoglycemic episode are, e.g., increased sweating, nervousness, asthenia/weakness, tremor, dizziness, increased appetite, palpitations, headache, sleep disorder, confusion, seizures, unconsciousness, coma.
as §2

[4] = test system: Patients with Type 2 Diabetes Insufficiently Controlled with Insulin Glargine with or without Metformin; format: in vivo, human; conditions: for Reason for treatment discontinuation: Lack of efficacy: Randomized population, HbA1c above […] at Week 12 or later; for Reason for treatment discontinuation: Adverse event: human, in vivo

Row | Substance | Insulin glargine dose change to Week 26, LS Mean difference (SE) of Lixisenatide vs. the labelled insulin glulisine arm [1] | Insulin glargine dose, Change from baseline to Week 26 (LOCF), LS Mean (SE) [1] | Insulin Glargine dose, BL (end run-in) mean ± SD ([1]; mITT) [U/day] | Insulin glargine dose, Baseline, Mean (SD) [1] | Insulin glargine dose, Baseline, Median [1] [U] | Insulin Glargine dose, Week 26 (LOCF) mean ± SD ([1]; mITT) [U/day] | Insulin glargine dose, Week 26 (LOCF), Mean (SD) [1] | Insulin glargine dose, Week 26 (LOCF), Median [1] [U] | Insulin Glargine dose, LS mean + SE change from BL ([1]; mITT) [U/day] | Insulin Glargine dose, LS mean treatment difference (lixisenatide vs the labelled arm) ([1]; mITT) [U/day] | Insulin glargine dose, Change from baseline to Week 26 (LOCF), Mean (SD) [1] | Insulin glargine dose, Change from baseline to Week 26 (LOCF), Median [1] [U] | Fasting plasma glucose change to Week 26, LS Mean difference (SE) of Lixisenatide vs. the labelled insulin glulisine arm [2] | Fasting plasma glucose, Change from baseline to Week 26 (LOCF), LS Mean (SE) [2] | FPG, BL (end run-in) mean ± SD [2] [mg/dL] | Fasting plasma glucose, Baseline, Mean (SD) [2] | Fasting plasma glucose, Baseline, Median [2] [mmol/L] | FPG, Screening (start run-in) mean ± SD [2] [mg/dL] | FPG, Week 26 (LOCF) mean ± SD [2] [mg/dL] | Fasting plasma glucose, Week 26 (LOCF), Mean (SD) [2] | also measured
1 | Insulin Glulisine TID: insulin glulisine three times daily, added to insulin glargine ± metformin (comparator arm) | 3.83 (1.106) U | −3.13 (0.982) U | 65 ± 27 | 65.05 (27.01) U | 60.67 | 61 ± 29 | 61.16 (29.33) U | 57.00 | −3.1 ± 1.0 | 3.9 | −3.89 (13.28) U | −4.00 | −0.17 (0.158) mmol/L | −0.06 (0.140) mmol/L | 120 ± 34 | 6.65 (1.89) mmol/L | 6.40 | 171 ± 53 | 121 ± 36 | 6.71 (2.02) mmol/L | Fasting plasma glucose, Week 26 (LOCF), Median [2]: 6.50 mmol/L; FPG, LS mean treatment difference (lixisenatide vs the labelled arm) [2]: -3 mg/dL; FPG, LS mean ± SE change from BL [2]: -1 ± 3 mg/dL; Fasting plasma glucose, Change from baseline to Week 26 (LOCF), Mean (SD) [2]: 0.05 (2.47) mmol/L; Fasting plasma glucose, Change from baseline to Week 26 (LOCF), Median [2]: -0.20 mmol/L; Any symptomatic hypoglycemia: Number of events [3]: 600; Any symptomatic hypoglycemia: Number of events per 100 patient years [3]: 410.4 per 100 patient years; Any symptomatic hypoglycemia: Number of patients with events per 100 patient years [3]: 90.3 per 100 patient years; Documented Symptomatic Hypoglycemia at Week 26, % pts [3]: 44.6 (p = 0.001) % pts; Documented Symptomatic Hypoglycemia at Week 26, No. of events [3]: 595; Documented Symptomatic Hypoglycemia at Week 26, No. of events/pt years [3]: 4.1 events/pt years; Severe Hypoglycemia, no. of pts with events [3]: 0; Reason for treatment discontinuation: Lack of efficacy [4]: 0 n (%); Reason for treatment discontinuation: Adverse event [4]: 5 (1.7%) n (%)
2 | Insulin Glulisine QD: insulin glulisine once daily, added to insulin glargine ± metformin (comparator arm) | 0.76 (1.104) U | −0.06 (0.999) U | 65 ± 32 | 64.79 (32.09) U | 58.00 | 64 ± 36 | 63.89 (35.67) U | 54.00 | −0.1 ± 1.0 | 0.8 | −0.91 (13.41) U | −1.33 | −0.01 (0.157) mmol/L | −0.21 (0.142) mmol/L | 123 ± 36 | 6.85 (1.99) mmol/L | 6.50 | 167 ± 52 | 120 ± 35 | 6.66 (1.94) mmol/L | Insulin Glargine dose, Screening (start run-in) mean ± SD ([1]; Screening (start run-in), mITT): 40 ± 22 U/day; Fasting plasma glucose, Week 26 (LOCF), Median [2]: 6.40 mmol/L; FPG, LS mean treatment difference (lixisenatide vs the labelled arm) [2]: 0 mg/dL; FPG, LS mean ± SE change from BL [2]: -4 ± 3 mg/dL; Fasting plasma glucose, Change from baseline to Week 26 (LOCF), Mean (SD) [2]: −0.19 (2.52) mmol/L; Fasting plasma glucose, Change from baseline to Week 26 (LOCF), Median [2]: -0.10 mmol/L; Any symptomatic hypoglycemia: Number of events [3]: 395; Any symptomatic hypoglycemia: Number of events per 100 patient years [3]: 266.4 per 100 patient years; Any symptomatic hypoglycemia: Number of patients with events per 100 patient years [3]: 78.9 per 100 patient years; Documented Symptomatic Hypoglycemia at Week 26, % pts [3]: 37.5 (p = 0.144) % pts; Documented Symptomatic Hypoglycemia at Week 26, No. of events [3]: 384; Documented Symptomatic Hypoglycemia at Week 26, No. of events/pt years [3]: 2.6 events/pt years; Severe Hypoglycemia, no. of pts with events [3]: 2; Reason for treatment discontinuation: Lack of efficacy [4]: 4 (1.3%) n (%); Reason for treatment discontinuation: Adverse event [4]: 2 (0.7%) n (%)
